Experiment: HILIC, HILICON iHILIC-(P) Classic, HILIC, PEEK, 50 × 2.1 mm, 5 µm, 45 °C, 0.12 mL/min, estimated dead time 0.92 min; A: water + 20 mM ammonium carbonate; B: acetonitrile; gradient (min/%B) 0/90 1/90 21/20 21.5/20 26.5/20 27.5/90 35/90
Conditions: stereoisomer not certain

In order of rising LC retention time:
1. O=C(O)c1cccnc1 [Nicotinic acid]  1.66 min
2. CC(O)C(=O)O (stereo not drawn) [Lactic Acid]  2.81 min
3. O=C(O)CCCCC1SCC2NC(=O)NC21 (stereo not drawn) [Biotin]  3.35 min
4. Nc1ncnc2nc[nH]c12 [Adenine]  3.42 min
5. Nc1ncnc2c1ncn2C1OC(CO)C(O)C1O (stereo not drawn) [Adenosine]  3.57 min
6. NC(Cc1ccccc1)C(=O)O (stereo not drawn) [Phenylalanine]  4.97 min
7. CC(C)CC(N)C(=O)O (stereo not drawn) [Leucine]  5.45 min
8. CCC(C)C(N)C(=O)O (stereo not drawn) [Isoleucine]  5.72 min
9. CSCCC(N)C(=O)O (stereo not drawn) [Methionine]  5.91 min
10. Nc1ccn(C2OC(CO)C(O)C2O)c(=O)n1 (stereo not drawn) [Cytidine]  5.92 min
11. NC(Cc1c[nH]c2ccccc12)C(=O)O (stereo not drawn) [Tryptophan]  6.18 min
12. O=C(O)C1(O)CC(O)C(O)C(O)C1 (stereo not drawn) [Quinic Acid]  6.43 min
13. Nc1nc2c(ncn2C2OC(CO)C(O)C2O)c(=O)[nH]1 (stereo not drawn) [Guanosine]  6.69 min
14. CC(C)C(N)C(=O)O (stereo not drawn) [Valine]  6.71 min
15. O=C(O)C1CCCN1 (stereo not drawn) [Proline]  6.81 min
16. NC(Cc1ccc(O)cc1)C(=O)O (stereo not drawn) [Tyrosine]  6.98 min
17. CC(O)C(N)C(=O)O (stereo not drawn) [Threonine]  8.21 min
18. NC(=O)CCC(N)C(=O)O (stereo not drawn) [Glutamine]  8.36 min
19. Nc1ncnc2c1ncn2C1OC(COP(=O)(O)O)C(O)C1O (stereo not drawn) [AMP]  8.49 min
20. NC(CCC(=O)NC(CS)C(=O)NCC(=O)O)C(=O)O (stereo not drawn) [GSH]  8.5 min
21. NC(CO)C(=O)O (stereo not drawn) [Serine]  8.59 min
22. CC(=O)SCCNC(=O)CCNC(=O)C(O)C(C)(C)COP(=O)(O)OP(=O)(O)OCC1OC(n2cnc3c(N)ncnc32)C(O)C1OP(=O)(O)O (stereo not drawn) [Acetyl-CoA]  8.69 min
23. NC(=O)c1ccc[n+](C2OC(COP(=O)(O)OP(=O)(O)OCC3OC(n4cnc5c(N)ncnc54)C(O)C3O)C(O)C2O)c1 (stereo not drawn) [NAD]  8.93 min
24. NC(=O)C1=CN(C2OC(COP(=O)(O)OP(=O)(O)OCC3OC(n4cnc5c(N)ncnc54)C(O)C3O)C(O)C2O)C=CC1 (stereo not drawn) [NADH]  9.33 min
25. O=C1OC(C(O)CO)C(O)=C1O (stereo not drawn) [Ascorbic Acid]  9.37 min
26. O=C(O)CC(=O)O [Malonic Acid]  9.39 min
27. NC(=O)c1ccc[n+](C2OC(COP(=O)([O-])O)C(O)C2O)c1 (stereo not drawn) [NMN]  9.43 min
28. O=c1ccn(C2OC(COP(=O)(O)O)C(O)C2O)c(=O)[nH]1 (stereo not drawn) [UMP]  9.52 min
29. NC(CCC(=O)O)C(=O)O (stereo not drawn) [Glutamic acid]  9.69 min
30. CC(=O)NC(CC(=O)O)C(=O)O (stereo not drawn) [N-Acetylaspartic acid]  9.96 min
31. NC(=O)CC(N)C(=O)O (stereo not drawn) [Asparagine]  10.8 min
32. Nc1ccn(C2OC(COP(=O)(O)O)C(O)C2O)c(=O)n1 (stereo not drawn) [CMP]  10.9 min
33. O=P(O)(O)OCC(O)CO (stereo not drawn) [Glycerol-3-phosphate]  10.9 min
34. O=C(CO)COP(=O)(O)O [Triose phosphate]  11.3 min
35. NC(CSSCC(N)C(=O)O)C(=O)O (stereo not drawn) [Cystine]  11.6 min
36. CC(=O)NC1C(OP(=O)(O)OP(=O)(O)OCC2OC(n3ccc(=O)[nH]c3=O)C(O)C2O)OC(CO)C(O)C1O (stereo not drawn) [UDP-GlcNAc]  11.7 min
37. O=C(O)CCC(=O)O [Succinic Acid]  11.8 min
38. Nc1ncnc2c1ncn2C1OC(COP(=O)(O)OP(=O)(O)O)C(O)C1O (stereo not drawn) [ADP]  12.2 min
39. O=c1ccn(C2OC(COP(=O)(O)OP(=O)(O)O)C(O)C2O)c(=O)[nH]1 (stereo not drawn) [UDP]  12.2 min
40. Cc1ncc(C[n+]2csc(CCO)c2C)c(N)n1 [Thiamine]  13 min
41. O=C(O)CC(O)C(=O)O (stereo not drawn) [Malic Acid]  13.1 min
42. Nc1ccn(C2OC(COP(=O)(O)OP(=O)(O)O)C(O)C2O)c(=O)n1 (stereo not drawn) [CDP]  13.2 min
43. NC(=O)c1ccc[n+](C2OC(COP(=O)(O)OP(=O)(O)OCC3OC(n4cnc5c(N)ncnc54)C(OP(=O)(O)O)C3O)C(O)C2O)c1 (stereo not drawn) [NADP]  13.5 min
44. O=C(O)C(CO)OP(=O)(O)O (stereo not drawn) [Phosphoglyceric acid A]  13.5 min
45. Nc1ncnc2c1ncn2C1OC(COP(=O)(O)OP(=O)(O)OP(=O)(O)O)C(O)C1O (stereo not drawn) [ATP]  13.6 min
46. C=C(OP(=O)(O)O)C(=O)O [PEP]  13.7 min
47. Nc1nc2c(ncn2C2OC(COP(=O)(O)O)C(O)C2O)c(=O)[nH]1 (stereo not drawn) [GMP]  14.2 min
48. Nc1nc2ncc(CNc3ccc(C(=O)NC(CCC(=O)O)C(=O)O)cc3)nc2c(=O)[nH]1 (stereo not drawn) [Folic Acid]  14.3 min
49. O=c1ccn(C2OC(COP(=O)(O)OP(=O)(O)OP(=O)(O)O)C(O)C2O)c(=O)[nH]1 (stereo not drawn) [UTP]  14.3 min
50. Nc1nc2c(ncn2C2OC(COP(=O)(O)OP(=O)(O)O)C(O)C2O)c(=O)[nH]1 (stereo not drawn) [GDP]  15.2 min
51. NC(CCC(=O)NC(CSSCC(NC(=O)CCC(N)C(=O)O)C(=O)NCC(=O)O)C(=O)NCC(=O)O)C(=O)O (stereo not drawn) [GSSG]  15.3 min
52. O=C(O)CC(C(=O)O)C(O)C(=O)O (stereo not drawn) [Isocitric acid]  15.9 min
53. O=P(O)(O)OCC1OC(O)(COP(=O)(O)O)C(O)C1O (stereo not drawn) [Fructose-1,6-bisphosphate]  16.3 min
54. O=C(O)CC(O)(CC(=O)O)C(=O)O [Citric acid]  16.4 min
55. NC(=O)C1=CN(C2OC(COP(=O)(O)OP(=O)(O)OCC3OC(n4cnc5c(N)ncnc54)C(OP(=O)(O)O)C3O)C(O)C2O)C=CC1 (stereo not drawn) [NADPH]  16.8 min
56. Nc1nc2c(ncn2C2OC(COP(=O)(O)OP(=O)(O)OP(=O)(O)O)C(O)C2O)c(=O)[nH]1 (stereo not drawn) [GTP]  17.1 min
57. NCCCC(N)C(=O)O (stereo not drawn) [Ornithine]  18.1 min
58. NCCCCC(N)C(=O)O (stereo not drawn) [Lysine]  18.8 min
